According to US8802414B2, “Methods and materials for reducing biofilms” (priority 2007, dated 2014):
Entries after “also recorded” stand apart in the source; their conditions may differ.

Columns and labels:
[1] = tested on: S. lugdunensis clinical isolates; assay: Microtiter plate biofilm formation assay; format: cell-based, Staphylococcus lugdunensis
Procedure: (§1) Bacteria stored at −70° C. were freshly streaked on sheep's blood agar or trypticase soy agar before each replicate experiment. For microtiter plate biofilm formation and detachment assays, immunodetection assays, and confocal microscopy assays (unless stated otherwise), isolated colonies from 16 to 24 hour-old plates were grown in trypticase soy broth (BD BBL, Franklin Lakes, N.J.) supplemented with 1% (w/v) sterile-filtered glucose (TSBgluc1%) with shaking at 130 rpm for 22-24 hours. Unless otherwise noted, all experiments were incubated in ambient air at 37° C.
(§2) Biofilm formation was assayed using a microtiter plate assay as described elsewhere (Christensen et al., J. Clin. Microbiol., 22:996-1006 (1985)), with modifications as described elsewhere (Chaignon et al., Appl. Microbiol. Biotechnol., 75(1):125-132 (2007) and Frank and Patel, Diagn. Microbiol. Infect. Dis., 57:355-359 (2007)). Briefly, cultures were adjusted with TSBgluac1% to match the turbidity of a 1.0 McFarland standard (˜1-2×10^8 cfu/mL) and diluted 1:50 in TSBgluc1% or TSBgluc1% containing various concentrations of sodium chloride (1-5%, w/v) or ethanol (0.5-4%, v/v). For experiments examining the effect of glucose concentration on biofilm formation, bacteria were grown overnight, adjusted to 1.0 McFarland, and diluted in TSB containing the corresponding amount of glucose being tested (0.5-5%, w/v). 200 μL aliquots of each diluted culture were placed into four wells of 96-well microtiter plates (Nuclon Delta, Nalge Nunc International, Rochester, N.Y.), and incubated for 24 hours. Cell growth was measured by reading the OD600 nm on a microplate reader (Multiskan, Thermo Electron, Waltham, Mass.). Culture media was discarded, and wells were washed twice by fully submerging plates in deionized water to remove non-adherent cells and allowed to air-dry overnight. Biofilms remaining in the wells were stained with 0.1% safranin for 1 minute, rinsed under running tap water to remove excess stain, and air-dried overnight. In order to ensure homogeneity among stained material in the wells, stained biofilms were resuspended in 200 μL of 30 percent glacial acetic acid, and the OD492 nm was measured.

S. aureus SA113 = assay: Microtiter plate biofilm formation assay; format: cell-based, Staphylococcus aureus
Procedure: as §1, §2

S. epidermidis RP62A = assay: Microtiter plate biofilm formation assay; format: cell-based, Staphylococcus epidermidis
Procedure: as §1, §2

[2] = tested on: pre-formed S. lugdunensis biofilms; assay: Microtiter plate biofilm detachment assay; format: cell-based, Staphylococcus lugdunensis
Procedure: 40 mM sodium metaperiodate (NaIO4, Sigma-Aldrich) in water, 40 μg/mL purified recombinant dispersin B (obtained from Kane Biotech Inc., Winnipeg, Manitoba, Canada) in sodium phosphate buffer (50 mM sodium phosphate (pH 5.8), 100 mM NaCl), 100 μg/mL proteinase K (Roche Applied Science) in 10 mM Tris-HCl pH 7.5, 10 U/mL trypsin (Promega Corp., Madison, Wis.) in 10 mM Tris-HCl pH 7.5, 100 μg/mL chymotrypsin (Sigma-Aldrich) in 10 mM Tris-HCl pH 7.5, and 100 μg/mL thermolysin (Sigma-Aldrich) in 10 mM Tris-HCl pH 7.5 were tested for their ability to detach pre-formed S. lugdunensis biofilms from polystyrene microtiter plate wells. For certain experiments, proteinase K was inactivated by boiling for 40 minutes.
Biofilms grown in TSBgluc1% were formed in wells of microtiter plates and washed twice with deionized water, as described above for the microtiter plate biofilm formation assay. 100 μL of NaIO4, enzyme, or suitable control was carefully added so as not to mechanically detach biofilms on the bottoms of wells. Plates were incubated at 37° C. for 2 hours, and contents of wells were discarded and washed twice with deionized water. Plates were air-dried overnight, stained with 0.1% safranin for 1 minute, and processed as described above to quantify the amount of stained biofilm remaining after treatment, relative to treatment with the control reagent. Four wells were measured for each treatment condition. Assays were repeated two or three times on separate days with similar results.

[3] = tested on: pre-formed biofilms of S. epidermidis RP62A; assay: Microtiter plate biofilm detachment assay; format: cell-based, Staphylococcus epidermidis; conditions: 2 hours at 37° C.; safranin OD492
[4] = tested on: pre-formed biofilms of S. carnosus TM300+pCN27; assay: Microtiter plate biofilm detachment assay; format: cell-based, Staphylococcus carnosus; conditions: 2 hours at 37° C.; safranin OD492
[5] = increasing ethanol concentrations (0.5-4% v/v) in TSBgluc1%
[6] = increasing salt concentrations (1-5% sodium chloride)
[7] = 2 hours at 37° C., safranin OD492, 15 clinical isolates

CCO [ethanol]
adherence ([1]; 2% ethanol, all S. lugdunensis that formed measurable baseline biofilms): prevent the adherence | killing / growth of isolates ([1]; 2% ethanol, isolates IDRL-2554, IDRL-2640 and IDRL-5254 only): killed; also recorded: inhibited growth | killing of bacteria ([1]; 4% ethanol, all S. lugdunensis isolates): bactericidal | levels of biofilm production ([1]; most ethanol concentrations, isolates with baseline biofilm OD492 >=0.150): reduced the levels of biofilm production | biofilm production (S. aureus SA113; [5]): significant reductions in biofilm production | biofilm production (S. epidermidis RP62A; [5]): significant reductions in biofilm production

[Cl-].[Na+] [sodium chloride]
biofilm formation ([1]; 5% sodium chloride): Essentially no measurable quantity of biofilm could be detected | S. lugdunensis isolates that formed more biofilm ([1]; TSBgluc1% containing 1 or 2% sodium chloride, 11/15 isolates): 73% | adherence to microtiter wells ([1]; higher concentrations of salt (above 2% sodium chloride)): substantially reduced | growth (optical density of the biomass in each well) [1, 6]: not affected | biofilm compared to baseline biofilm formation (S. aureus SA113; 5% sodium chloride): significantly reduced, yet still discernable | biofilm levels (S. aureus SA113; TSBgluc1% with 1-2% sodium chloride): increase | growth (optical density of the biomass in each well) (S. aureus SA113; [6]): not affected | biofilm compared to baseline biofilm formation (S. epidermidis RP62A; 5% sodium chloride): not affected | biofilm levels (S. epidermidis RP62A; TSBgluc1% with 1-3% sodium chloride): increase | growth (optical density of the biomass in each well) (S. epidermidis RP62A; [6]): not affected

[Na+].[O-][I+3]([O-])([O-])[O-] [sodium metaperiodate]
S. lugdunensis biofilms on whose release there was moderate to little effect ([2]; 40 mM, 2 hours at 37° C., 8/15 isolates): 53% | biofilm detachment compared to buffer ([2]; seven isolates IDRL-2394, IDRL-2526, IDRL-2554, IDRL-2588, IDRL-2622, IDRL-2640, IDRL-5258, 40 mM, 2 hours): greater susceptibility | biofilm detachment compared to buffer [3]: substantial detachment | biofilm detachment compared to buffer [4]: essentially completely released

chymotrypsin
biofilm detachment compared to buffer [2, 7]: detach S. lugdunensis biofilms selectively

trypsin
biofilm detachment compared to buffer [2, 7]: Concordant results | biofilm release ([2]; isolates IDRL-2414 and IDRL-2526, 10 U/mL, 2 hours at 37° C.): noticeably more resistant to release | biofilm detachment compared to buffer [3]: Concordant results | biofilm detachment compared to buffer [4]: Concordant results
